According to paper PMC12530851, “Design, synthesis, and apoptotic antiproliferative activity of novel dihydropyrimidine-5-carbonitrile/1,2,4-oxadiazole hybrids as dual EGFR/VEGFR-2 inhibitors endowed with antioxidant activity” (RSC Advances, 2025):

Columns and labels:
[1] = test system: HT-29 (colon cancer); assay: Antiproliferative assay, HT-29; type: cell-based; conditions: Homo sapiens; HT-29 colon cancer cells; read-out: Antiproliferative activity IC50 ± SEM, HT-29
Excerpt: (§1) The dose–response experiments established the IC50 values for the new compounds. The given findings were obtained from at least two distinct studies, each comprising three repeats per concentration. Appendix A (SI File) provides experimental details.[38,39]
(§2) The MTT assay[43] was utilized to assess the antiproliferative effects of compounds 10a–l on four human cancer cell lines: HT-29 (colon cancer), Panc-1 (pancreatic cancer), A-549 (lung cancer), and MCF-7 (breast cancer). […]
(§3) 4.2.2. Assay for antiproliferative effect
(§4) To explore the antiproliferative potential of compounds propidium iodide fluorescence assay was performed using different cell lines such as Panc-1 (pancreas cancer cell line), MCF-7 (breast cancer cell line), HT-29 (colon cancer cell line) and A-549 (epithelial cancer cell line), respectively. To calculate the total nuclear DNA, a fluorescent dye (propidium iodide, PI) is used which can attach to the DNA, thus offering a quick and precise technique. PI cannot pass through the cell membrane and its signal intensity can be considered as directly proportional to quantity of cellular DNA. Cells whose cell membranes are damaged or have changed permeability are counted as dead ones. The assay was performed by seeding the cells of different cell lines at a density of 3000-7500 cells/well (in 200μl medium) in culture plates followed by incubation for 24h at 37 °C in humidified 5%CO2/95% air atmospheric conditions. The medium was removed; the compounds were added to the plates at 10 μM concentrations (in 0.1% DMSO) in triplicates, followed by incubation for 48h. DMSO (0.1%) was used as control. After incubation, medium was removed followed by the addition of PI (25 μl, 50μg/mL in water/medium) to each well of the plates. At - 80 °C, the plates were allowed to freeze for 24 h, followed by thawing at 25 °C. A fluorometer (Polar-Star BMG Tech) was used to record the readings at excitation and emission wavelengths of 530 and 620 nm for each well. The percentage cytotoxicity of compounds was calculated using […]
(§5) Where ATC= Absorbance of treated cells and AC= Absorbance of control. Erlotinib was used as positive control in the assay. […]

[2] = test system: four human cancer cell lines (A-549, MCF-7, Panc-1, HT-29); assay: Antiproliferative assay, average over four cancer cell lines; type: cell-based; conditions: for GI50: Homo sapiens, average IC50 across A-549, MCF-7, Panc-1, HT-29; for Reduction in antiproliferative potency relative to 10k (GI50): less potent than 10k
Protocol: The given findings were obtained from at least two distinct studies, each comprising three repeats per concentration. Appendix A (SI File) provides experimental details.[38,39] […]
as §3
To explore the antiproliferative potential of compounds propidium iodide fluorescence assay was performed using different cell lines such as Panc-1 (pancreas cancer cell line), MCF-7 (breast […]
respectively. To calculate the total nuclear DNA, a fluorescent dye (propidium iodide, PI) is used which can attach to the DNA, thus offering a quick and precise technique. PI cannot pass through the cell membrane and its signal intensity can be considered as directly proportional to quantity of cellular DNA. Cells whose cell membranes are damaged or have changed permeability are counted as dead ones. The assay was performed by seeding the cells of different cell lines at a density of 3000-7500 cells/well (in 200μl medium) in culture plates followed by incubation for 24h at 37 °C […]
The medium was removed; the compounds were added to the plates at 10 μM concentrations (in 0.1% DMSO) in triplicates, followed by incubation for 48h. DMSO (0.1%) was used as control. After incubation, medium was removed followed by the addition of PI (25 μl, 50μg/mL in water/medium) to each well of the plates. At - 80 °C, the plates were allowed to freeze for 24 h, followed by thawing at 25 °C. A fluorometer (Polar-Star BMG Tech) was used to record the readings at excitation and emission wavelengths of 530 and 620 nm for each well. The percentage cytotoxicity of compounds was calculated using […]
Where ATC= Absorbance of treated cells and AC= Absorbance of control. […]
positive control in the assay. […]

[3] = test system: MCF-7 (breast cancer); assay: Antiproliferative assay, MCF-7; type: cell-based, human; conditions: Homo sapiens, MCF7; MCF-7 breast cancer cells; read-out: Antiproliferative activity IC50 ± SEM, MCF-7
Excerpt: as §1, §2, §3, §4, §5

[4] = test system: A-549 (lung cancer); assay: Antiproliferative assay, A-549; type: cell-based; conditions: Homo sapiens, A549; A-549 lung cancer cells; read-out: Antiproliferative activity IC50 ± SEM, A-549
Excerpt: as §1, §2, §3, §4, §5

[5] = test system: Panc-1 (pancreatic cancer); assay: Antiproliferative assay, Panc-1; type: cell-based; conditions: Homo sapiens; Panc-1 pancreatic cancer cells; read-out: Antiproliferative activity IC50 ± SEM, Panc-1
Excerpt: as §1, §2, §3, §4, §5

[6] = Cell viability assay (MTT) on normal MCF-10A cells; type: cell-based; conditions: human, MCF-10A mammary gland epithelial cells (normal cell line), MCF-10A normal cells, four-day incubation
Protocol: The impact of novel compounds 10a–l on the viability of a normal human cell line, specifically human mammary gland epithelial cells (MCF-10A), was assessed to ascertain the safety of the newly synthesized compounds. The MTT test was employed to assess the cell viability of the novel compounds after a four-day incubation with MCF-10A cells.[29,37] Refer to Appendix A for more experimental details.
The effect of new compounds 10a–l on the viability of a normal human cell line, namely human mammary gland epithelial cells (MCF-10A), was evaluated to determine the safety of the newly synthesized compounds.
4.2. Biological evaluation
4.2.1 Cell Viability assay (MTT assay)
MTT assay was performed to investigate the effect of the synthesized compounds on mammary epithelial cells (MCF-10A). The cells were propagated in medium consisting of Ham's F-12 medium/ Dulbecco's modified Eagle's medium (DMEM) (1:1) supplemented with 10% foetal calf serum, 2 mM glutamine, insulin (10 μg/mL), hydrocortisone (500 ng/mL) and epidermal growth factor (20 ng/mL). Trypsin ethylenediamine tetra acetic acid (EDTA) was used to passage the cells after every 2-3 days. 96-well flat-bottomed cell culture plates were used to seed the cells at a density of 10^4 cells mL-1. The medium was aspirated from all the wells of culture plates after 24 h followed by the addition of synthesized compounds (in 200 μL medium to yield a final concentration of 0.1% (v/v) dimethyl sulfoxide) into individual wells of the plates. Four wells were designated to a single compound. The plates were allowed to incubate at 37°C for 96 h. Afterwards, the medium was aspirated and 3-[4,5-dimethylthiazol-2-yl]-2,5-diphenyltetrazolium bromide (MTT) (0.4 mg/mL) in medium was added to each well and subsequently incubated for 3 h. The medium was aspirated and 150 μL dimethyl sulfoxide (DMSO) was added to each well. The plates were vortexed followed by the measurement of absorbance at 540 nm on a microplate reader. […]

[7] = target: EGFR (Homo sapiens, UniProt P00533); assay: EGFR inhibitory assay (EGFR-TK test)
Sequence of EGFR (P00533 669-1210): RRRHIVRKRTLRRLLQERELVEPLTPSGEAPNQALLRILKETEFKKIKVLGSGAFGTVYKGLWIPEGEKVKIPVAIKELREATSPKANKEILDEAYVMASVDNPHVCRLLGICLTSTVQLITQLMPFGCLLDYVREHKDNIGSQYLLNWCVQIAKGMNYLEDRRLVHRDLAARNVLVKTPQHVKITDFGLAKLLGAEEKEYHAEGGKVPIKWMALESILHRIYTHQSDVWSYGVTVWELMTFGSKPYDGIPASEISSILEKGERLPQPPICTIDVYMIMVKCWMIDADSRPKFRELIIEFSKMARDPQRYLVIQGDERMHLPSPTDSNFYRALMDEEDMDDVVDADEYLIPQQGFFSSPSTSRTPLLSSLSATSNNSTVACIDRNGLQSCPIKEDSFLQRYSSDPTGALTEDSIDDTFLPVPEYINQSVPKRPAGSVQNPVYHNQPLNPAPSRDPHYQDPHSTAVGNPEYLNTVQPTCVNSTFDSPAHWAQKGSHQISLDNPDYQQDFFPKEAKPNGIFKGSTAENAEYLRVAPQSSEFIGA
Protocol: Baculoviral expression vectors including pBlueBacHis2B and pFASTBacHTc were used
5ʹ upstream to the EGFR sequence comprised a sequence that encoded (His)6. Sf-9 cells were infected for 72h for protein expression. The pellets of Sf-9 cells were solubilized in a buffer containing sodium vanadate (100 μM), aprotinin (10 μg/mL), triton (1%), HEPES
buffer(50mM), ammonium molybdate (10 μM), benzamidine HCl (16 μg/mL), NaCl (10 mM),leupeptin (10 μg/mL) and pepstatin (10 μg/mL) at 0°C for 20 min at pH 7.4, followed by centrifugation for 20 min. To eliminate the nonspecifically bound material, a Ni-NTA super flow packed column was used to pass through and wash the crude extract supernatant first with 10mM and then with 100 mM imidazole. Histidine-linked proteins were first eluted with 250 and then with 500 mM imidazole subsequent to dialysis against NaCl (50 mM), HEPES (20 mM), glycerol (10%) and 1 μg/mL each of aprotinin, leupeptin and pepstatin for 120 min. The purification was performed either at 4 °C or on ice. To record autophosphorylation level, EGFR kinase assay was carried out on the basis of DELFIA/Time-Resolved Fluorometry. The compounds were first
dissolved in DMSO absolute, subsequent to dilution to appropriate concentration using HEPES
(25 mM) at pH 7.4. Each compound (10 μL) was incubated with recombinant enzyme (10 μL, 5
ng for EGFR, 1:80 dilution in 100 mM HEPES) for 10 min at 25 °C, subsequent to the addition of
5X buffer (10 μL, containing 2 mM MnCl2, 100 μM Na3VO4, 20 mM HEPES and 1 mM DTT)
and ATP-MgCl2 (20 μL, containing 0.1 mM ATP and 50 mM MgCl2) and incubation for 1h. The
negative and positive controls were included in each plate by the incubation of enzyme either with
or without ATP-MgCl2. The liquid was removed after incubation and the plates were washed
thrice using a wash buffer. The Europium-tagged antiphosphotyrosine antibody (75 μL, 400 ng)
was added to each well followed by incubation of 1h and then washing of the plates using buffer.
The enhancement solution was added to each well and the signal was recorded at excitation and
The autophosphorylation percentage inhibition by compounds was calculated using the following equation:
calculated. The majority of signals detected by antiphosphotyrosine antibody were from EGFR because the enzyme preparation contained low impurities.

[8] = target: VEGFR-2 (Homo sapiens, UniProt P35968); assay: VEGFR-2 inhibitory assay
Sequence of VEGFR-2 (P35968 20-1356): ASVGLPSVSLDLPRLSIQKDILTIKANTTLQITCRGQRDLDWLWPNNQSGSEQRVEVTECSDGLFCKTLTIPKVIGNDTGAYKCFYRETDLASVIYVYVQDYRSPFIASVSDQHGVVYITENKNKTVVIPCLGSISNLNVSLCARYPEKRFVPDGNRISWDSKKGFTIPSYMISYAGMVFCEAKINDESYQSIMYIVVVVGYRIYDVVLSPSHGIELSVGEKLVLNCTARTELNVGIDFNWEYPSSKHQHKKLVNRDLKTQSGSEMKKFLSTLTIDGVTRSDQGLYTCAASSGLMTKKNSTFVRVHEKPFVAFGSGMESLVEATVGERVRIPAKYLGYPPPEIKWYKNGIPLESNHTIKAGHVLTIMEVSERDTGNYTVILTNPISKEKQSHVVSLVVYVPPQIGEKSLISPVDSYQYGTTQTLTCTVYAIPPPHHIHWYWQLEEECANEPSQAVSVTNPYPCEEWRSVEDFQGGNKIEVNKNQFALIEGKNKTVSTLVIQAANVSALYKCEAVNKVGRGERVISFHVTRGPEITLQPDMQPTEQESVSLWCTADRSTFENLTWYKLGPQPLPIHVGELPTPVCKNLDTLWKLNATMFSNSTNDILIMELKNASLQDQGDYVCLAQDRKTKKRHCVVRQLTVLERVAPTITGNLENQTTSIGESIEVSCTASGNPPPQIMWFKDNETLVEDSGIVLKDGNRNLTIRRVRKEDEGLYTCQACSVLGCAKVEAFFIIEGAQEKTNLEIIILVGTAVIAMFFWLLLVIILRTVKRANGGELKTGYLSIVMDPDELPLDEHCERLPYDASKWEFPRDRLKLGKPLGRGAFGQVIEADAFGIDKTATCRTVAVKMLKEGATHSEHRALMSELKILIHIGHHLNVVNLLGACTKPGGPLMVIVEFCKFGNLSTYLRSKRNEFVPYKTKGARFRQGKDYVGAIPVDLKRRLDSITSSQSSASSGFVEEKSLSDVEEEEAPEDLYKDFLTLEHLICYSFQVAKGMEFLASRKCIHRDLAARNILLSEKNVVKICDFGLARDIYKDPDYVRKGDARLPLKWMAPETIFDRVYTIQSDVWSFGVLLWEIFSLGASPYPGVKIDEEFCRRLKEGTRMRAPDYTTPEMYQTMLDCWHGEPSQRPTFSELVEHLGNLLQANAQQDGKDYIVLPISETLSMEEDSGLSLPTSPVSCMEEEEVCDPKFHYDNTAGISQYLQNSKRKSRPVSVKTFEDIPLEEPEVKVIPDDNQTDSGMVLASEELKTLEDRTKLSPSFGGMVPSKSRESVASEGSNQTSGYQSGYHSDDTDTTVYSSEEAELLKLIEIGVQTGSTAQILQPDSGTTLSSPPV
Protocol: The majority of signals detected by antiphosphotyrosine antibody were from EGFR because the enzyme preparation contained low impurities.
Prepare all the solutions using autoclaved, deionized water and analytical grade reagents. Prepare
and store all the reagents at room temperature (unless indicated otherwise). EDTA solution (0.5
M, pH 8.0): add 95 mL ultra-pure water to 14.612 g EDTA, adjust the pH to 8.0 using NaOH
solution, add 5 mL ultra-pure water; 1×Kinase Assay Buffer: add 25 mL HEPES solution (1 M),
water, adjust pH to 7.5 and constant volume to 500 mL using ultrapure water; 4×Stop solution (40
mM): Mix 0.8 mL of the foregoing EDTA solution, 1 mL 10×Detection Buffer and 8.2 mL ultra-
pure water; 1×Detection Buffer: Mix 1 mL 10×Detection Buffer with 9 mL water; 4×VEGFR
μM) was added to 624 μL 1×Kinase Assay Buffer and mixed; 4×ULight™-labeled JAK1
concentration 5 μM) was added to 576 μL 1×Kinase Assay Buffer and mixed; 4×ATP Solution
2×substrate/ATP Mix: 560 μL foregoing 4×ULight™-labeled JAK1 and 560 μL 4×ATP solution
and mixed (prepared before use). The assays used an ULight-labeled peptide substrate and a
Europium-W1024-labeled antiphosphotyrosine antibody. The VEGFR-2 was purchased from
Carna Biosciences, Inc. (New York, USA). The 384-well plates were obtained from PerkinElmer.
Compounds were dissolved in DMSO and diluted to 11 concentrations at a tripling rate from 2.500
5 μL 2×VEGFR-2 kinase solution (0.5 nM)
was added to 384-well plates homogeneous mixing and pre-reaction at room temperature for 30
min. Next, 2.5 μL 4×Ultra ULightTM-JAK-1(Tyr1023) Peptide (200 nM)/ATP (40 μM) was
added to the corresponding wells of a 384-well plate. Negative control: 2.5 μL/well 4×substrate/ATP mixture and 7.5 μL 1×kinase assay buffer in 384-well plate well. Positive control:
μL/well 2×VEGFR-2 kinase solution was added to the 384-well plate, The final concentration of DMSO in the mixing system was 4%. After incubation at room temperature and dark for 60 min, 5 μL 4×stop solution was added to corresponding wells to react for 5 min and then 5 μL 4×detection mix was added to the corresponding wells of a 384-well plate. The mixture was centrifugally mixed and stayed for 60 min at room temperature for color development. The plate
was read using an Envision plate reader. The inhibition rate (%) = (positive well reading-
compound well reading)/(positive well reading-negative well reading)×100. The corresponding IC50 values were calculated using GraphPad Prism 5.0.

[9] = test system: caspase-9; assay: Caspase-9 activation assay in MCF-7 cells; type: cell-based, human
Protocol: (§6) Compounds10k and 10l were tested as caspases-3, 8, 9, Bax and p53 activators and as down-regulators of the anti-apoptotic protein Bcl2 against the MCF-7 breast cancer cell line.[41] Appendix A gives more details.
(§7) To elucidate the apoptotic processes of compounds 10k and 10l, whether via the intrinsic or extrinsic pathway, their impacts on caspase-8 and caspase-9 were evaluated. […] This signifies the activation of both intrinsic and extrinsic pathways (Table 5).
(§8) 4.2.6. Caspase-8/9 activation assay
(§9) Cells were obtained from American Type Culture Collection, cells were grown in RPMI 1640 containing 10% fetal bovine serum at 37°C, stimulated with the compounds to be tested for caspase 8/9, and lysed with Cell Extraction Buffer. This lysate was diluted in Standard Diluent Buffer over the range of the assay and measured for human active caspase-8/9 content. (Cells are Plated in a density of 1.2 – 1.8 × 10,000 cells/well in a volume of 100µl complete growth medium + 100 ul of the tested compound per well in a 96-well plate for 24 hours before the enzyme assay). The absorbance of each microwell was read on a spectro-photometer at 450 nm. […]

[10] = test system: caspase-3; assay: Caspase-3 activation assay in MCF-7 cells; type: cell-based, human; conditions: vs untreated control
[11] = test system: caspase-8; assay: Caspase-8 activation assay in MCF-7 cells; type: cell-based, human
Protocol: as §6, §7, §8, §9

| IC50 [1] [nM] | GI50 [2] [nM] | Reduction in antiproliferative potency relative to 10k (GI50) [2] [fold] | IC50 [3] [nM] | IC50 [4] [nM] | IC50 [5] [nM] | IC50 [7] [nM] | IC50 [8] [nM] | SMILES | viability at 96 h, 50 µM [6] [%] | Caspase-9 Conc [9] [ng/mL] | Caspase-9 Fold change ([9]; vs untreated control) [fold] | Caspase-3 Fold change [10] [fold] | Caspase-8 Conc [11] [ng/mL] | Caspase-8 Fold change ([11]; vs untreated control) [fold] |
| --- | --- | --- | --- | --- | --- | --- | --- | --- | --- | --- | --- | --- | --- | --- |
| 66 ± 5 | 63 | 2.9 | 61 ± 5 | 65 ± 5 | 61 ± 5 | – | – | N#Cc1c(-c2ccccc2)nc(SCc2nc(-c3ccc(Cl)cc3)no2)[nH]c1=O [Compound 10b, 2-(((3-(4-Chlorophenyl)-1,2,4-oxadiazol-5-yl)methyl)thio)-6-oxo-4-phenyl-1,6-dihydropyrimidine-5-carbonitrile] | 90 | – | – | – | – | – |
| 54 ± 4 | 51 | – | 49 ± 3 | 52 ± 4 | 50 ± 4 | – | – | COc1ccc(-c2noc(CSc3nc(-c4ccncc4)c(C#N)c(=O)[nH]3)n2)cc1 [Compound 10f, 2-(((3-(4-Methoxyphenyl)-1,2,4-oxadiazol-5-yl)methyl)thio)-6-oxo-4-(pyridin-4-yl)-1,6-dihydropyrimidine-5-carbonitrile] | 91 | – | – | – | – | – |
| 30 ± 2 | 28 | 1.3 | 25 ± 1 | 30 ± 2 | 28 ± 1 | 65 ± 4 | 32 ± 2 | N#Cc1c(-c2ccncc2)nc(SCc2nc(-c3ccc(Cl)cc3)no2)[nH]c1=O [Compound 10e, 2-(((3-(4-Chlorophenyl)-1,2,4-oxadiazol-5-yl)methyl)thio)-6-oxo-4-(pyridin-4-yl)-1,6-dihydropyrimidine-5-carbonitrile] | 90 | – | – | – | – | – |
| 40 ± 2 | 38 | – | 35 ± 2 | 39 ± 2 | 37 ± 2 | – | – | N#Cc1c(-c2ccc(Cl)cc2)nc(SCc2nc(-c3ccccc3)no2)[nH]c1=O [Compound 10g, 2-(((3-Phenyl-1,2,4-oxadiazol-5-yl)methyl)thio)-4-(4-chlorophenyl)-6-oxo-1,6-dihydropyrimidine-5-carbonitrile] | 90 | – | – | – | – | – |
| 70 ± 5 | 68 | 3 | 65 ± 5 | 69 ± 5 | 68 ± 5 | – | – | COc1ccc(-c2nc(SCc3nc(-c4ccccc4)no3)[nH]c(=O)c2C#N)cc1 [Compound 10j, 2-(((3-Phenyl-1,2,4-oxadiazol-5-yl)methyl)thio)-4-(4-methoxyphenyl)-6-oxo-1,6-dihydropyrimidine-5-carbonitrile] | 89 | – | – | – | – | – |
| – | – | – | – | – | – | – | – | CN[C@@H]1C[C@H]2O[C@@](C)([C@@H]1OC)n1c3ccccc3c3c4c(c5c6ccccc6n2c5c31)C(=O)NC4 [Staurosporine, reference compound] | – | 20 ± 1 | 20 | 7.00 | 1.90 ± 0.10 | 19.00 |
| 57 ± 4 | 54 | – | 51 ± 4 | 56 ± 4 | 53 ± 4 | – | – | N#Cc1c(-c2ccncc2)nc(SCc2nc(-c3ccccc3)no2)[nH]c1=O [Compound 10d, 2-(((3-Phenyl-1,2,4-oxadiazol-5-yl)methyl)thio)-6-oxo-4-(pyridin-4-yl)-1,6-dihydropyrimidine-5-carbonitrile] | 89 | – | – | – | – | – |
| 51 ± 3 | 47 | – | 44 ± 3 | 49 ± 3 | 44 ± 3 | – | – | COc1ccc(-c2noc(CSc3nc(-c4ccccc4)c(C#N)c(=O)[nH]3)n2)cc1 [Compound 10c, 2-(((3-(4-Methoxyphenyl)-1,2,4-oxadiazol-5-yl)methyl)thio)-6-oxo-4-phenyl-1,6-dihydropyrimidine-5-carbonitrile] | 92 | – | – | – | – | – |
| 45 ± 3 | 43 | – | 40 ± 3 | 44 ± 3 | 42 ± 3 | – | – | N#Cc1c(-c2ccccc2)nc(SCc2nc(-c3ccccc3)no2)[nH]c1=O [Compound 10a, 2-(((3-Phenyl-1,2,4-oxadiazol-5-yl)methyl)thio)-6-oxo-4-phenyl-1,6-dihydropyrimidine-5-carbonitrile] | 91 | – | – | – | – | – |

| SMILES | IC50 [1] [nM] | GI50 [2] [nM] | Reduction in antiproliferative potency relative to 10k (GI50) [2] [fold] | IC50 [3] [nM] | IC50 [4] [nM] | IC50 [5] [nM] | IC50 [7] [nM] | IC50 [8] [nM] | viability at 96 h, 50 µM [6] [%] | Caspase-9 Conc [9] [ng/mL] | Caspase-9 Fold change ([9]; vs untreated control) [fold] | Caspase-3 Fold change [10] [fold] | Caspase-8 Conc [11] [ng/mL] | Caspase-8 Fold change ([11]; vs untreated control) [fold] |
| --- | --- | --- | --- | --- | --- | --- | --- | --- | --- | --- | --- | --- | --- | --- |
| C#Cc1cccc(Nc2ncnc3cc(OCCOC)c(OCCOC)cc23)c1 [Erlotinib, reference compound] | 30 ± 3 | – | – | 40 ± 3 | 30 ± 3 | 30 ± 3 | – | – | – | – | – | – | – | – |
